In patent US12281333B2, “Renal tube assay device and methods of manufacture and use” (The University of Kansas, priority 2020, dated 2025):

How the values were obtained:
tubules of M1 cells = assay: Contractility of renal tubule model lined by M1 cells (kymogram analysis of time-lapse images); assay type: cell-based, mouse; conditions: for relative contraction (ratio of measured contraction to tubule diameter): percent of untreated tubule diameter, FIG. 3C
Procedure: (§1) Time-lapse recordings of kidney epithelial cells in hydrogel tunnels were performed on a Zeiss Axio Observer Z1 ® inverted microscope with a 10× Plan Neofluar® objective. The microscope was equipped with a Marzhauser SCAN-IM powered stage and a Zeiss AxioCam® MRm CCD camera. Cell cultures established in flow chambers within cell culture dishes (Greiner) were continuously kept in a stage-incubator (Cell Movie) providing 37° C. and humidified 5% CO2 atmosphere. Stage positioning, focusing and image collection were all controlled by Zeiss Axiovision® 4.8 software and a custom-made experiment manager software module. Phase contrast images were collected consecutively in every 10 minutes from several microscopic fields for up to 4 days. Alternatively, for real-time video microscopy the images were captured at a rate of 20 frames per second.
Contraction of renal tubule models were analyzed on the basis of image series captured by phase-contrast time-lapse video microscopy. Using NIH ImageJ software's Reslice function image series were resliced along a cross sectional line across the tubule resulting in a kymogram.
For inhibition of actomyosin contractility, Y27632, a cell-permeable Rho kinase inhibitor, (Merck Millipore (9) was applied. The inhibitor was dissolved in water and kept in 10 mM stock solutions and used at 50 μM final concentration. For control treatments, an identical volume of water was applied.
(§2) The inhibitor was applied at 50 μM final concentration in the flow chamber without circulation, resulting in dilation of the tunnel within 30 minutes. […] Both the dilation and contraction responses were quantitatively analyzed by constructing kymograms from the phase-contrast time-lapse image series as shown in FIG. 3A. In a collagen I gel, the diameter of 250 μm wide M1- or MDCK-lined tunnels contracted by 20 or 15 μm, respectively as shown in FIG. 3B. The relative contraction (as defined by the ratio of the measured contraction to tubule diameter) is larger for tubules with smaller diameters: while the 250 μm tubule contracts almost […] of its diameter, a 600 μm large tubule contracts only about 5% as shown in FIG. 3C.
FIGS. 3A-3C show the contractility of model renal tubules. FIG. 3A includes a representative kymogram along a perpendicular cross section of a tubule of M1 cells in collagen I gel matrix. Time progresses from top to bottom, a 10h long interval is indicated by the arrow. The duration of treatment with 50 μM Y27632 Rho kinase inhibitor is indicated with the red line (scale bar: 50 μm). FIGS. 3B-3C include graphs illustrating quantitative analysis of tubule contractility. […] Error bars represent SEM.

tubules of MDCK cells = assay: Contractility of renal tubule model lined by MDCK cells (kymogram analysis of time-lapse images); assay type: cell-based, canine; conditions: 250 μm wide MDCK-lined tunnels in collagen I gel; 50 μM inhibitor then washout; FIG. 3B, n=2
Procedure: as §1, with “Phase contrast images were collected consecutively in every 10 minutes from several microscopic fields for up to 4 days. Alternatively, for real-time video microscopy the images were captured at a rate of 20 frames per second.” left out
Contraction of renal tubule models were analyzed on the basis of image series captured by phase-contrast time-lapse video microscopy. […]
as §2, with “In a collagen I gel, the diameter of 250 μm wide M1- or MDCK-lined tunnels contracted by 20 or 15 μm, respectively as shown in FIG. 3B.” left out, “3C. […]” for “3C.”

## C[C@@H](N)[C@H]1CC[C@H](C(=O)Nc2ccncc2)CC1 [Y27632]
Tubules of M1 cells; 50 μM final concentration in the flow chamber without circulation, cell line not given, FIG. 3A kymogram is M1 cells in collagen I gel
  time to dilation of the tunnel: ≤ 30 min
Tubules of M1 cells; 250 μm tubule of M1 cells
  relative contraction (ratio of measured contraction to tubule diameter): ~13%
Tubules of M1 cells; 250 μm wide M1-lined tunnels in collagen I gel, 50 μM inhibitor then washout, FIG. 3B, n=2
  contraction of tunnel diameter: 20 μm
Tubules of M1 cells; 600 μm tubule of M1 cells
  relative contraction (ratio of measured contraction to tubule diameter): about 5%
Tubules of M1 cells; after 50 μM treatment, washout
  effect of subsequent washout of the inhibitor on the tunnel: gradual contraction of the tunnel to approximately its initial state
Tubules of MDCK cells
  contraction of tunnel diameter: 15 μm
